How the values were obtained:
[1] = tested on: plant body or plant cells; conditions: supplied directly to plant body or plant cells; 'or more'; cited from earlier work
carp = conditions: data sheet of Hokho lateral-row Oryzemate granular wettable powder; cited from earlier work
[2] = CLA chemiluminescence measurement of superoxide anion radicals in water; assay type: physicochemical; conditions: KO2 marker in FIG. 4; extinguished within several milliseconds
Procedure: The measurement of the superoxide anion radicals in water is performed in the following manner. […] Further, timings for collecting samples are set to immediately before the starting of reaction, 15 minutes after the start of reaction, and 30 minutes after the starting of reaction. At respective timings, 500 μl of aqueous solution in the reservoir is sampled using a micropipette and is added to 500 μl of 25 mM phosphoric acid potassium buffer solution (pH7.0) to which CLA is preliminarily added (1:1 mixture, total: 1 ml) and CLA luminescence is measured for 5 minutes after dropping the solution. The intensity of luminescence is indicated by relative luminescence unit (hereinafter referred to as rlu). […] Further, KO2 solution obtained by dissolving KO2 (potassium superoxide) in an organic solvent is added to CLA solution thus preparing a calibration curve of superoxide anion by chemiluminescence dependent on CLA. Generally, a method which dissolves KO2 in crown-ether-based organic solution and uses the solution for the determination of superoxide is used. However, to allow the reaction with CLA in aqueous solution in a non-hydrophobic environment, dimethylsulfoxide (DMSO) is used as organic solvent. Using this method, CLA luminescence by adding KO2 solution is induced whereby the calibration curve of superoxide anion radicals is prepared.

| Compound | concentration necessary to actually confirm the expression of the genes [1] | also measured |
| --- | --- | --- |
| OO [hydrogen peroxide] | 2 to 10 mM |  |
| C=CCOC1=NS(=O)(=O)c2ccccc21 [probenazole] |  | LC50 value (48 hours) for carp (carp): 8 ppm |
| O=C(O)c1ccccc1O [salicylic acid] | 0.1 to 0.5 mM |  |
| Potassium superoxide [KO2] |  | time for which emission of light is observed after dropping into water [2]: < 2 s |
